Experimental data taken from patent publication US10676479B2, “Imidazolepyridine compounds and uses thereof” (Novartis AG, priority 2016, dated 2020).

Columns and labels:
[1] = target: EED (1-441)-His protein (Homo sapiens (Human), UniProt O75530); experiment: EED-H3K27Me3 peptide competition binding assay by AlphaScreen; settings: EED Alphascreen binding Qualified assay
Description: Then 4 μL of detection beads mix was added to the plate and incubate in the dark at the rt for 1 h. The final concentration of donor and acceptor beads was 10 μg/mL for each. […] The data were then fit to a dose response equation using the program Helios (Novartis) to get the IC50 values. […] Sebaugh, J. […] Each compound was counter screened to determine if it interfered with the AlphaScreen beads. […] The plates were then incubated for 1 h at rt in dark before being read on EnVison.

[2] = target: wild type PRC2 (wtPRC2) complex (Homo sapiens (Human), UniProt O75530); experiment: EED LC-MS assay; type: biochemical; settings: EED LC-MS Qualified assay; read-out: (b) IC50
wild type PRC2 (wtPRC2) complex, sequence (O75530 whole entry): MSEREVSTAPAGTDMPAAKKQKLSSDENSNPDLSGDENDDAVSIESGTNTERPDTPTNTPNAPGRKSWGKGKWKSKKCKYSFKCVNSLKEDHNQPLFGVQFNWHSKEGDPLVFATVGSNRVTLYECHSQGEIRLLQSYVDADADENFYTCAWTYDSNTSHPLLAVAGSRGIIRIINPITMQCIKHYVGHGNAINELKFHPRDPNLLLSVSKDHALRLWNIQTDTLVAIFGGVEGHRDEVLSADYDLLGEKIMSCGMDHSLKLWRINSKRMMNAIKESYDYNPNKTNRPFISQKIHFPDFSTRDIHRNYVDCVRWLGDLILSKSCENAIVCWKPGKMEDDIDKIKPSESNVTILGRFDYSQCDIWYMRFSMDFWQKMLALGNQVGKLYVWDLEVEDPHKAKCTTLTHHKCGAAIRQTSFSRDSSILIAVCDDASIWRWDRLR
wild type PRC2 (wtPRC2) complex, sequence (Q15910 whole entry partner): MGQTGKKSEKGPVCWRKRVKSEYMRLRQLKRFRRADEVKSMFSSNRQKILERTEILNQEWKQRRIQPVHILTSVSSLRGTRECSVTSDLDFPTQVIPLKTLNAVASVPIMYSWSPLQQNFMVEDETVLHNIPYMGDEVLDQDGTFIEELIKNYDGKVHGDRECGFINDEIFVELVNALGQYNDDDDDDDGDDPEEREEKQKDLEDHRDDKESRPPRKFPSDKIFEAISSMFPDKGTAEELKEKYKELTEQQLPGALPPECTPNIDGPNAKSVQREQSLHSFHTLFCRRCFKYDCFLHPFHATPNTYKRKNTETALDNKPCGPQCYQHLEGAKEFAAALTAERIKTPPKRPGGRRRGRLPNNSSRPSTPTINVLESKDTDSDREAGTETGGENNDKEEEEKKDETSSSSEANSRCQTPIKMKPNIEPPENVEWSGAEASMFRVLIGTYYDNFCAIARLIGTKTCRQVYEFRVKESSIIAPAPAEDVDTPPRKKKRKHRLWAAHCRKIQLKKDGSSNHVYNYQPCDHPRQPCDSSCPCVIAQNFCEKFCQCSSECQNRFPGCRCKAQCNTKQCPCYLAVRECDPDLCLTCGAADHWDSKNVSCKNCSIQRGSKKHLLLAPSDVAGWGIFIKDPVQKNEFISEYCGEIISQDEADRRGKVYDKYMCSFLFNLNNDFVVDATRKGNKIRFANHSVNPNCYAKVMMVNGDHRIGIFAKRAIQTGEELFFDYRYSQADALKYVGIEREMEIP
wild type PRC2 (wtPRC2) complex, sequence (Q15022 whole entry partner): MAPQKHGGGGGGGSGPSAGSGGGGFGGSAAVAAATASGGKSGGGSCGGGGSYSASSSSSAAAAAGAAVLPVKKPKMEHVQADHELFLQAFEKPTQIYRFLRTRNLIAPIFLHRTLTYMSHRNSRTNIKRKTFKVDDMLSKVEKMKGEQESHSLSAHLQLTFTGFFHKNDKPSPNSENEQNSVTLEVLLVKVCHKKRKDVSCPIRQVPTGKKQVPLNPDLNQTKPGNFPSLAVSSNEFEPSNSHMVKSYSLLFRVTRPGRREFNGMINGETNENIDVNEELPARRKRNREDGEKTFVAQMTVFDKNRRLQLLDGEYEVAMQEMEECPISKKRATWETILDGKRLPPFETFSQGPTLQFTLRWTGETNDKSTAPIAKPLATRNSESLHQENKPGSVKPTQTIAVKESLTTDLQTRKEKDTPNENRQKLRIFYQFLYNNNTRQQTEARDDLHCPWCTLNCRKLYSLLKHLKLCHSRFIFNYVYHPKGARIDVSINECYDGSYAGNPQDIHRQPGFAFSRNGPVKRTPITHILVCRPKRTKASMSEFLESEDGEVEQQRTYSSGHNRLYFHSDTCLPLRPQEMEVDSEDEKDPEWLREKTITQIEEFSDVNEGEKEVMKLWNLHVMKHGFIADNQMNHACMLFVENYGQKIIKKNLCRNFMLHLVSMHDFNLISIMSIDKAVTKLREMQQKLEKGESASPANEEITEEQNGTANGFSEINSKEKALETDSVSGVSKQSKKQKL
Description: EED LC-MS Assay Representative compounds of the present invention were serially and separately diluted 3-fold in DMSO to obtain a total of eight or twelve concentrations. […] A 6 μL solution of 3 μM of the peptide substrate H3K27Me0 (histone H3[21-44]-biotin) in reaction buffer was added to initiate each reaction. […] The data were then fit to a dose response equation using the program Helios to get the IC50 values of the test compound.

[3] = system: H3K27 methylation in G401 cell; experiment: ELISA (H3K27 methylation) assay; type: cell-based; settings: Homo sapiens, G-401, ELISA Qualified assay, 48 h, read-out: (c) IC50
Description: ELISA (H3K27 Methylation) Assay
Representative compounds of the present invention were serially and separately diluted 3-fold in DMSO to obtain a total of eight or twelve concentrations. Then the compounds were added to G401 cell cultured in 384-well plate at 1:500 dilution to obtain the highest concentration of 20 μM. The cells were further cultured for 48 h before ELISA procedure.
ELISA protocol: Cell lysates were transferred to the wells of a 384-well plate and the final volume was adjusted to 50 μL per well with PBS. The plate was sealed, centrifuged at 2,000 rpm for 2 min and incubated at 4° C. for about 16 h. The plate was washed with TBST buffer (1×TBS (10×TBS: 24.2 g Tris (Sigma, T6066), 80 g NaCl (Sigma, S3014) to 1 L of water and adjust pH to 7.6 with HCl) with 0.1% Tween-20). Blocking buffer (TBST, 5% BSA; 50 μL per well) was added and the plate was incubated for 1 h at rt. The blocking buffer was removed and primary antibody was added (30 μL per well). […] The primary antibody was incubated in the plate at rt for 1 h. The wells were washed with TBST and incubated with secondary antibody for 1 h at rt. […] After 1 h of incubation at rt, the wells were washed with TBST. […] The signal was read using a PerkinElmer Envision Reader. The H3K27 methylation readouts were normalized using H3 signal and then percentage inhibition was calculated against the samples treated with DMSO. The data were then fit to a dose response curve using the program Helios to get the IC50 values of the test compound.

EED (1-441)-His protein, sequence (O75530 whole entry): as the sequence (O75530 whole entry) above

SMILES	IC50 [1] [nM]	IC50 [2] [nM]	IC50 [3] [nM]
N#Cc1ncn2c(NCc3c(F)ccc4c3CCO4)ncc(-c3ccc(N4CCOCC4)nc3)c12 [Example 82, 5-(((5-fluoro-2,3-dihydrobenzofuran-4-yl)methyl)amino)-8-(6-morpholinopyridin-3-yl)imidazo[1,5-c]pyrimidine-1-carbonitrile]	8.3	18.1	6.8
CCC(O)c1ncc(-c2cnc(NCc3c(F)ccc4c3CCO4)n3cnc(C#N)c23)c(C)n1 (stereo not shown) [Example 80, 5-(((5-fluoro-2,3-dihydrobenzofuran-4-yl)methyl)amino)-8-(2-(1-hydroxypropyl)-4-methylpyrimidin-5-yl)imidazo[1,5-c]pyrimidine-1-carbonitrile]	10.5	34.5	14.2
Cc1cc(-c2cnc(NCc3c(F)ccc4c3CCO4)n3cncc23)n(C)n1 [Example 45, 8-(1,3-dimethyl-1H-pyrazol-5-yl)-N-((5-fluoro-2,3-dihydrobenzofuran-4-yl)methyl)imidazo[1,5-c]pyrimidin-5-amine]	5.1	8.4	17.9
CNC(=O)c1ncn2c(NCc3c(F)ccc4c3CCO4)ncc(-c3cccnc3C)c12 [Example 2, 5-(((5-Fluoro-2,3-dihydrobenzofuran-4-yl)methyl)amino)-N-methyl-8-(2-methylpyridin-3-yl)imidazo[1,5-c]pyrimidine-1-carboxamide]	12.3	26.7	12.6
Cc1ccc(-c2ncn3c(NCc4c(F)ccc5c4CCO5)ncc(-c4cnc(C)nc4C)c23)cn1 [Example 114, 8-(2,4-dimethylpyrimidin-5-yl)-N-((5-fluoro-2,3-dihydrobenzofuran-4-yl)methyl)-1-(6-methylpyridin-3-yl)imidazo[1,5-c]pyrimidin-5-amine]	8.4	31.9	22.8
Cc1ncccc1-c1cnc(NCc2c(F)ccc3c2CCO3)n2cnc(C(=O)NC3COC3)c12 [Example 106, 5-(((5-fluoro-2,3-dihydrobenzofuran-4-yl)methyl)amino)-8-(2-methylpyridin-3-yl)-N-(oxetan-3-yl)imidazo[1,5-c]pyrimidine-1-carboxamide]		16.5	10.9
CS(=O)(=O)c1ncn2c(NCc3c(F)ccc4c3CCO4)ncc(Br)c12 [Example 103, 8-bromo-N-((5-fluoro-2,3-dihydrobenzofuran-4-yl)methyl)-1-(methylsulfonyl)imidazo[1,5-c]pyrimidin-5-amine]	5	10	36.1
Cc1ccc(-c2ncn3c(NCc4c(F)ccc5c4CCO5)ncc(-c4cnc(C)nc4C)c23)c(C)n1 [Example 113, 1-(2,6-dimethylpyridin-3-yl)-8-(2,4-dimethylpyrimidin-5-yl)-N-((5-fluoro-2,3-dihydrobenzofuran-4-yl)methyl)imidazo[1,5-c]pyrimidin-5-amine]	15.2	38.9	53.1
CN(C)S(=O)(=O)c1ccc(-c2cnc(NCc3c(F)ccc4c3CCO4)n3cncc23)cc1 [Example 18, 4-(5-(((5-fluoro-2,3-dihydrobenzofuran-4-yl)methyl)amino)imidazo[1,5-c]pyrimidin-8-yl)-N,N-dimethylbenzenesulfonamide]	10.1	15.1	46
Fc1ccc2c(c1CNc1ncc(-c3cccnc3C(F)F)c3cncn13)CCO2 [Example 51, 8-(2-(difluoromethyl)pyridin-3-yl)-N-((5-fluoro-2,3-dihydrobenzofuran-4-yl)methyl)imidazo[1,5-c]pyrimidin-5-amine]	5.2	9.4	6.4
CC(C)S(=O)(=O)c1ccc(-c2cnc(NCc3c(F)ccc4c3CCO4)n3cncc23)cc1 [Example 30, N-((5-fluoro-2,3-dihydrobenzofuran-4-yl)methyl)-8-(4-(isopropylsulfonyl)phenyl)imidazo[1,5-c]pyrimidin-5-amine]	7.7	11.1	19.5
Cc1nn(C(C)C)cc1-c1cnc(NCc2c(F)ccc3c2CCO3)n2cncc12 [Example 53, N-((5-fluoro-2,3-dihydrobenzofuran-4-yl)methyl)-8-(1-isopropyl-3-methyl-1H-pyrazol-4-yl)imidazo[1,5-c]pyrimidin-5-amine]	9.9	23.1	94.8
Cc1ncc(-c2cnc(NCc3c(F)ccc4c3CCO4)n3cnc(S(=O)(=O)c4ccccc4)c23)c(C)n1 [Example 15, 8-(2,4-dimethylpyrimidin-5-yl)-N-((5-fluoro-2,3-dihydrobenzofuran-4-yl)methyl)-1-(phenylsulfonyl)imidazo[1,5-c]pyrimidin-5-amine]	15.2	29.8	7.8
CC(=O)c1ncn2c(NCc3c(F)ccc4c3CCO4)ncc(-c3cnc(C)nc3C)c12 [Example 16, 1-(8-(2,4-Dimethylpyrimidin-5-yl)-5-(((5-fluoro-2,3-dihydrobenzofuran-4-yl)methyl)amino)-imidazo[1,5-c]pyrimidin-1-yl)ethan-1-one]	9.1	17.5	7.6
CC(=O)N1CCN(c2ccc(-c3cnc(NCc4c(F)ccc5c4CCO5)n4cnc(C#N)c34)cn2)CC1 [Example 87, 8-(6-(4-acetylpiperazin-1-yl)pyridin-3-yl)-5-(((5-fluoro-2,3-dihydrobenzofuran-4-yl)methyl)amino)imidazo[1,5-c]pyrimidine-1-carbonitrile]	17	29.7	13.4
Cc1cn(-c2cnc(NCc3c(F)ccc4c3CCO4)n3cnc(C#N)c23)cn1 [Example 6, 5-(((5-Fluoro-2,3-dihydrobenzofuran-4-yl)methyl)amino)-8-(4-methyl-1H-imidazol-1-yl)imidazo[1,5-c]pyrimidine-1-carbonitrile]	4.2	12.5	3.1
Cc1ncc(-c2cnc(NCc3c(F)ccc4c3CCO4)n3cnc(Cl)c23)c(C)n1 [Example 9, 1-chloro-8-(2,4-dimethylpyrimidin-5-yl)-N-((5-fluoro-2,3-dihydrobenzofuran-4-yl)methyl)imidazo[1,5-c]pyrimidin-5-amine]	10.4	11	10.9
Fc1ccc2c(c1CNc1ncc(-c3ccc(CN4CCC4)cc3)c3cncn13)CCO2 [Example 55, 8-(4-(azetidin-1-ylmethyl)phenyl)-N-((5-fluoro-2,3-dihydrobenzofuran-4-yl)methyl)imidazo[1,5-c]pyrimidin-5-amine]	3.3	13.7	37.4
CN(C)Cc1ccc(-c2cnc(NCc3c(F)ccc4occc34)n3cncc23)cc1 [Example 67, 8-(4-((dimethylamino)methyl)phenyl)-N-((5-fluorobenzofuran-4-yl)methyl)imidazo[1,5-c]pyrimidin-5-amine]	57.6	70.3	350
CCN1CCN(c2ccc(-c3cnc(NCc4c(F)ccc5c4CCO5)n4cnc(C#N)c34)cn2)CC1 [Example 81, 8-(6-(4-ethylpiperazin-1-yl)pyridin-3-yl)-5-(((5-fluoro-2,3-dihydrobenzofuran-4-yl)methyl)amino)imidazo[1,5-c]pyrimidine-1-carbonitrile]		35.1	14.8
CS(=O)(=O)c1ccc(-c2cnc(NCc3c(F)ccc4c3CCO4)n3cnc(-c4ccccc4)c23)cc1 [Example 110, N-((5-fluoro-2,3-dihydrobenzofuran-4-yl)methyl)-8-(4-(methylsulfonyl)phenyl)-1-phenylimidazo[1,5-c]pyrimidin-5-amine]		9.4	72.2
COc1cccc(F)c1CNc1ncc(-c2ccc(CN(C)C)cc2)c2cncn12 [Example 68, 8-(4-((dimethylamino)methyl)phenyl)-N-(2-fluoro-6-methoxybenzyl)imidazo[1,5-c]pyrimidin-5-amine]	201	246	
CCOC(=O)c1ncn2c(NCc3c(F)ccc4c3CCO4)ncc(-c3cccnc3C)c12 [Example 95, ethyl 5-(((5-fluoro-2,3-dihydrobenzofuran-4-yl)methyl)amino)-8-(2-methylpyridin-3-yl)imidazo[1,5-c]pyrimidine-1-carboxylate]	5.5		2
